One assay concerns the target T1, Rat Plasma VAP-1 (Rattus norvegicus, UniProt O08590).
T1 construct: from tissue; host or cells: plasma of SD male rats (7-12 weeks old) after oral dosing
T1 sequence (O08590 28-763 limits assumed): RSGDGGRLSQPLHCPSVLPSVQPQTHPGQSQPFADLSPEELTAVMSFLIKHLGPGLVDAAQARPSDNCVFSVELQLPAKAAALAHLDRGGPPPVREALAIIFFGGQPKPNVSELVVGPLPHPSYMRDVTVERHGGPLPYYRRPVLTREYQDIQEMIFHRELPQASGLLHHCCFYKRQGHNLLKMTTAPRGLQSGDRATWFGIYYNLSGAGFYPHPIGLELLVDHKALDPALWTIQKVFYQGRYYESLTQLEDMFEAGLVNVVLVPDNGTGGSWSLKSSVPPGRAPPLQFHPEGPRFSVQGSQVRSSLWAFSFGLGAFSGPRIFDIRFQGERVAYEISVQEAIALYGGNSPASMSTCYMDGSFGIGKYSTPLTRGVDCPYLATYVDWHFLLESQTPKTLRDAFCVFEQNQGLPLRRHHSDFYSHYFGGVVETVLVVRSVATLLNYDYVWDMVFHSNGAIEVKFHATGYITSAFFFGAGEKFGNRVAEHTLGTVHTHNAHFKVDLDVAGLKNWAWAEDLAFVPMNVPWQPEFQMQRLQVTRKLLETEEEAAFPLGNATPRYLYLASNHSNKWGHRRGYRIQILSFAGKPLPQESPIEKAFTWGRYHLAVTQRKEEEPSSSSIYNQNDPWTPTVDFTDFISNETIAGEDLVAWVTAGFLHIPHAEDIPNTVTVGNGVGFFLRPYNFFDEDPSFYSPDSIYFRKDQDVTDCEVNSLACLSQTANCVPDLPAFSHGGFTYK
Kind of assay: (Ex vivo) rat plasma VAP-1 inhibition test after oral administration of the compound. It counts as in vivo. The note with it: 3 hours after oral administration, SD male rats, read-out: inhibition ratio (plasma VAP-1, ex vivo). How it is done:
(Ex Vivo) Rat Plasma VAP-1 Inhibition Test after Oral Administration of the Compound
The compound was orally administered (0.3-10 mg/kg) to 7-12 week old SD male rats in the non-fasting state. Under anesthesia, the blood was collected in heparin tubes from the jugular vein before the administration and 3, 8 and 24 hours after the administration. The blood was centrifuged at 14000 rpm for 10 minutes to get plasma. The VAP-1 enzyme activity in the plasma was measured by radiochemical enzyme assay.
The radiochemical enzyme assay was conducted by modifying the method of P. H. Yu et al. (Diabetologia 40 1243 (1997)). ^14C-benzylamine (2.5 μM) was added to the obtained plasma, and was incubated at 37° C. for 3 hours. The reaction was terminated by the addition of 100 μL of 2 M citric acid solution to the reaction solution. The oxidative product was extracted using a toluene/ethyl acetate mixture and the radioactivity was measured with a liquid scintillation counter. The inhibition ratio of the compound was calculated using the following equation. Inhibition ratio={1−[Plasma VAP-1 activity after administration of the compound]/[Plasma VAP-1 activity before administration]}×100

The next assay deals with T2, Human VAP-1 enzyme (Homo sapiens, UniProt Q16853).
T2 construct: purchased R&D Systems, Inc
T2 sequence (Q16853 1-763): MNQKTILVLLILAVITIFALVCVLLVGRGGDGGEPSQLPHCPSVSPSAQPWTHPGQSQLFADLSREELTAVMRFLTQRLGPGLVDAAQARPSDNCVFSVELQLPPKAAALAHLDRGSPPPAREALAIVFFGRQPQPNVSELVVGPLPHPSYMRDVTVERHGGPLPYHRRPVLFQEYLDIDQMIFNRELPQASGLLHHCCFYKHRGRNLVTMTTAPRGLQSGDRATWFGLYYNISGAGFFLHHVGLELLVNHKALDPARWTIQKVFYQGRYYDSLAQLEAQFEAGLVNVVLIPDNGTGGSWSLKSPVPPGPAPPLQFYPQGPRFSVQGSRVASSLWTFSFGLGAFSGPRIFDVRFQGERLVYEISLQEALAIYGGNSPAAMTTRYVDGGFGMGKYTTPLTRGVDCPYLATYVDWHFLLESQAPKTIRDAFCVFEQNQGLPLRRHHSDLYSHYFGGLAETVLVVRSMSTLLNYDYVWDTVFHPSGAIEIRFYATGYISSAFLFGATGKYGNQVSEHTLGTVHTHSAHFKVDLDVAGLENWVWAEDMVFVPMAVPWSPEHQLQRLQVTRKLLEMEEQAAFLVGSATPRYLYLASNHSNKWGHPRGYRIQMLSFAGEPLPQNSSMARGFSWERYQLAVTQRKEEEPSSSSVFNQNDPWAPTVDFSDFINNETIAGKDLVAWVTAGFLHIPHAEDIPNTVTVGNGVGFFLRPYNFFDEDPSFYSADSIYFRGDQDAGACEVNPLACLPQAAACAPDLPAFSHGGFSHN
Nature of the assay: Human VAP-1 enzyme inhibition test. It is filed as biochemical. The settings on record: 1 h; compound 30 nM; 14C-benzylamine 100 μM; read-out: inhibition ratio (human VAP-1 enzyme). Summed up: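 Recombinant human VAP-1 pre-incubated 20 min at room temperature with compound in DMSO, then reacted with 14C-benzylamine (100 μM final) 1 h at 37 °C. Citric acid stop; oxidized product extracted into toluene/ethyl acetate and counted by liquid scintillation. Inhibition ratio relative to DMSO-only activity.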

Where a name gives a salt, the structure may show the parent alone.

In the case of `COCCON=C1CN(c2ncc(-c3cccc(COC(=O)NC(=N)N)c3F)cn2)C1` [Example 12, 2-Fluoro-3-(2-{3-[(2-methoxyethoxy)imino]azetidin-1-yl}pyrimidin-5-yl)benzyl carbamimidoylcarbamate], the inhibition in vivo at 0.3 mg/kg on Rat Plasma VAP-1 is not below 50%. The inhibition at 0.03 µM at Human VAP-1 enzyme is not below 50%.

For `COCC(CON=C1CN(c2ncc(-c3cccc(COC(=O)NC(=N)N)c3F)cn2)C1)OC(C)=O` (stereo not shown) [Example 20, 1-[({1-[5-(3-{[(Carbamimidoylcarbamoyl)oxy]methyl}-2-fluorophenyl)pyrimidin-2-yl]azetidin-3-ylidene}amino)oxy]-3-methoxypropan-2-yl acetate], the inhibition in vivo at 0.3 mg/kg at Rat Plasma VAP-1 is not below 50%. The inhibition at 0.03 µM on Human VAP-1 enzyme was not below 50%.

As for `CON=C1CN(c2ccc(-c3cccc(COC(=O)NC(=N)N)c3F)cn2)C1` [Example 41, 2-Fluoro-3-{6-[3-(methoxyimino)azetidin-1-yl]pyridin-3-yl}benzyl carbamimidoylcarbamate], at Rat Plasma VAP-1, the inhibition in vivo at 0.3 mg/kg was not below 50%. Moreover, at Human VAP-1 enzyme, the inhibition at 0.03 µM was not below 50%.

Regarding `CON=C1CN(c2ncc(-c3cccc(COC(=O)NC(=N)N)c3F)cc2C)C1` [Example 42, 2-Fluoro-3-{6-[3-(methoxyimino)azetidin-1-yl]-5-methylpyridin-3-yl}benzyl carbamimidoylcarbamate], the inhibition in vivo at 0.3 mg/kg at Rat Plasma VAP-1 is not below 50%. Besides, the inhibition at 0.03 µM on Human VAP-1 enzyme was not below 50%.

Regarding `N=C(N)NC(=O)OCc1cccc(-c2cnc(N3CCC(=NOCCOC4CCCCO4)CC3)nc2)c1F` (stereo not shown) [Example 57, 2-Fluoro-3-{2-[4-({2-[(tetrahydropyran-2-yl)oxy]ethoxy}imino)piperidin-1-yl]pyrimidin-5-yl}benzyl carbamimidoylcarbamate], the inhibition in vivo at 0.3 mg/kg at Rat Plasma VAP-1 was not below 50%. Besides, on Human VAP-1 enzyme, the inhibition at 0.03 µM was not below 50%.

Regarding `COCCON=C1CCN(c2ncc(-c3cccc(COC(=O)NC(=N)N)c3F)cn2)CC1` [Example 60, 2-Fluoro-3-(2-{4-[(2-methoxyethoxy)imino]piperidin-1-yl}pyrimidin-5-yl)benzyl carbamimidoylcarbamate], the inhibition in vivo at 0.3 mg/kg at Rat Plasma VAP-1 was not below 50%. Besides, on Human VAP-1 enzyme, the inhibition at 0.03 µM was not below 50%.

Regarding `CC(=O)OCCON=C1CCN(c2ncc(-c3cccc(COC(=O)NC(=N)N)c3F)cn2)CC1` [Example 68, 2-[({1-[5-(3-{[(Carbamimidoylcarbamoyl)oxy]methyl}-2-fluorophenyl)pyrimidin-2-yl]piperidin-4-ylidene}amino)oxy]ethyl acetate], the inhibition in vivo at 0.3 mg/kg on Rat Plasma VAP-1 was not below 50%. At Human VAP-1 enzyme, the inhibition at 0.03 µM is not below 50%.

Take `CO/N=C1\CCN(c2ncc(-c3cccc(COC(=O)NC(=N)N)c3F)cn2)C1` [Example 69, (E/Z)-2-fluoro-3-{2-[3-(methoxyimino)pyrrolidin-1-yl]pyrimidin-5-yl}benzyl carbamimidoylcarbamate]: the inhibition in vivo at 0.3 mg/kg on Rat Plasma VAP-1 was not below 50%. In addition, the inhibition at 0.03 µM on Human VAP-1 enzyme is not below 50%.

For `N=C(N)NC(=O)OCc1cccc(-c2cnc(N3CC(=NO)C3)nc2)c1F` [Example 70, 2-Fluoro-3-{2-[3-(hydroxyimino)azetidin-1-yl]pyrimidin-5-yl}benzyl carbamimidoylcarbamate], the inhibition in vivo at 0.3 mg/kg at Rat Plasma VAP-1 is not below 50%. Further, on Human VAP-1 enzyme, the inhibition at 0.03 µM was not below 50%.

Take `N=C(N)NC(=O)OCc1cccc(-c2cnc(N3CC(=NOCCCO)C3)nc2)c1F` [Example 72, 2-Fluoro-3-(2-{3-[(3-hydroxypropoxy)imino]azetidin-1-yl}pyrimidin-5-yl)benzyl carbamimidoylcarbamate]: the inhibition in vivo at 0.3 mg/kg at Rat Plasma VAP-1 is not below 50%. The inhibition at 0.03 µM on Human VAP-1 enzyme was not below 50%.

Consider `N=C(N)NC(=O)OCc1cccc(-c2cnc(N3CC(=NOCC(CO)COC(=O)c4ccccc4)C3)nc2)c1F` (stereo not shown) [Example 83, 3-[({1-[5-(3-{[(Carbamimidoylcarbamoyl)oxy]methyl}-2-fluorophenyl)pyrimidin-2-yl]azetidin-3-ylidene}amino)oxy]-2-(hydroxymethyl)propyl benzoate], for which the inhibition in vivo at 0.3 mg/kg at Rat Plasma VAP-1 was not below 50%.

Take `N=C(N)NC(=O)OCc1cccc(-c2cnc(N3CCC(=NOCCO)CC3)nc2)c1F` [Example 85, 2-Fluoro-3-(2-{4-[(2-hydroxyethoxy)imino]piperidin-1-yl}pyrimidin-5-yl)benzyl carbamimidoylcarbamate]: the inhibition in vivo at 0.3 mg/kg at Rat Plasma VAP-1 is not below 50%. For the same compound, the inhibition at 0.03 µM on Human VAP-1 enzyme was not below 50%.

As to `N=C(N)NC(=O)OCc1cccc(-c2cnc(N3CCC(=NOCCCO)CC3)nc2)c1F` [Example 86, 2-Fluoro-3-(2-{4-[(3-hydroxypropoxy)imino]piperidin-1-yl}pyrimidin-5-yl)benzyl carbamimidoylcarbamate hydrochloride], the inhibition in vivo at 0.3 mg/kg at Rat Plasma VAP-1 was not below 50%. At Human VAP-1 enzyme, the inhibition at 0.03 µM was not below 50%.

Take `N=C(N)NC(=O)OCc1cccc(-c2cnc(N3CCC(=NOCCCCO)CC3)nc2)c1F` [Example 87, 2-Fluoro-3-(2-{4-[(4-hydroxybutoxy)imino]piperidin-1-yl}pyrimidin-5-yl)benzyl carbamimidoylcarbamate hydrochloride]: at Rat Plasma VAP-1, the inhibition in vivo at 0.3 mg/kg is not below 50%. In addition, the inhibition at 0.03 µM at Human VAP-1 enzyme is not below 50%.

`CC(O)CON=C1CCN(c2ncc(-c3cccc(COC(=O)NC(=N)N)c3F)cn2)CC1` (stereo not shown) [Example 90, 2-Fluoro-3-(2-{4-[(2-hydroxypropoxy)imino]piperidin-1-yl}pyrimidin-5-yl)benzyl carbamimidoylcarbamate]: the inhibition in vivo at 0.3 mg/kg on Rat Plasma VAP-1 was not below 50%. Also, the inhibition at 0.03 µM on Human VAP-1 enzyme was not below 50%.

For the compound `CC(CO)CON=C1CCN(c2ncc(-c3cccc(COC(=O)NC(=N)N)c3F)cn2)CC1` (stereo not shown) [Example 91, 2-Fluoro-3-(2-{4-[(3-hydroxy-2-methylpropoxy)imino]piperidin-1-yl}pyrimidin-5-yl)benzyl carbamimidoylcarbamate], on Rat Plasma VAP-1, the inhibition in vivo at 0.3 mg/kg was not below 50%. Moreover, at Human VAP-1 enzyme, the inhibition at 0.03 µM was not below 50%.

Take `N=C(N)NC(=O)OCc1cccc(-c2cnc(N3CC(=NOCCC(O)CO)C3)nc2)c1F` (stereo not shown) [Example 94, 3-(2-{3-[(3,4-Dihydroxybutoxy)imino]azetidin-1-yl}pyrimidin-5-yl)-2-fluorobenzyl carbamimidoylcarbamate]: the inhibition in vivo at 0.3 mg/kg at Rat Plasma VAP-1 is not below 50%. At Human VAP-1 enzyme, the inhibition at 0.03 µM is not below 50%.

For `CCOC(=O)CCON=C1CCN(c2ncc(-c3cccc(COC(=O)NC(=N)N)c3F)cn2)CC1` [Example 149, Ethyl 3-[({1-[5-(3-{[(carbamimidoylcarbamoyl)oxy]methyl}-2-fluorophenyl)pyrimidin-2-yl]piperidin-4-ylidene}amino)oxy]propanoate], at Rat Plasma VAP-1, the inhibition in vivo at 0.3 mg/kg is not below 50%.

The values above are taken from US10759781B2, “Substituted guanidine derivatives” (UBE INDUSTRIES, LTD., priority 2015, dated 2020).
